Results: patent US20150126465A1, “PROCESS FOR PRODUCING DERIVATIVES OF PYROSTEGIA VENUSTA, DERIVATIVES OF PYROSTEGIA VENUSTA, PHARMACEUTICAL COMPOSITIONS AND ITS USES” (priority 2011, published 2015)
Like-named read-outs stand apart in the source and are kept apart here.

System: Candida parapsilosis ATCC 22019
Test: MIC/CFM by microdilution (CLSI M27-A2)
Assay type: cell-based
Conditions: Lodderomyces parapsilosis, ATCC22019; for MIC: read-out: MIC

Clc1ccc(COC(Cn2ccnc2)c2ccc(Cl)cc2Cl)c(Cl)c1 (stereo not drawn) [Miconazol]
1 µg/mL: MIC (Table 12, C. parapsilosis ATCC 22019, 48 h, 35° C.) | MFC (Table 14, C. parapsilosis ATCC 22019, read-out: CFM (Minimum Fungicidal Concentration)) | MIC (Table 14, C. parapsilosis ATCC 22019)
